Test results published in US12702665B2, “ExoVII inhibitor and quinolone antibiotic combination useful for treating bacterial infection” (The United States of America, As Represented by the …, priority 2020, dated 2026).

Columns and labels:
[1] = system: E. coli pgyrAHis transformants deficient in ExoVII; assay: Spotting assay on LB plates containing quinolones; type: cell-based; conditions: ΔxseA or ΔxseB pgyrAHis transformants vs wild-type
From the text: FIG. 8A, FIG. 8B, and FIG. 8C. Expression of a functional GyrAHis has no impact on sensitivities of E. coli strains to quinolones. FIG. 8A. Transformants of a single-copy plasmid bearing the gyrA gene including its endogenous promoter and a C-terminal His-tag (pgyrAHis) were established in either the wild-type, ΔxseA or ΔxseB strains. […] The asterisk denotes a non-specific band. FIG. 8B. Immunoblotting of the same transformants as in FIG. 8A, probed with anti-GyrA antibody (Abcam). FIG. 8C. […] Two technical replicates are shown.
Cell killing assays were carried out as previously described. Briefly, transformants harboring pBAD/Thio, pYtopA or pYtopA-R327W were grown in LB with 2% glucose and 50 μg/mL carbenicillin overnight and diluted 1:100 in LB with 50 μg/mL carbenicillin and grown to OD600 of 0.4. YTop1 or YTop1-R327W were induced by addition of 0.2% arabinose for 0.5-2 hrs. Post-induction cultures were then serially diluted and spotted onto LB plates with 2% glucose and 50 μg/mL carbenicillin and incubated at 37° C. overnight. Alternatively, exponentially growing transformants were serially diluted as indicated and spotted on LB plates containing 50 μg/mL carbenicillin and indicated concentrations of arabinose and incubated at 37° C. overnight.

[2] = system: E. coli strains carrying the gyrA-S83L mutation; assay: MIC of ciprofloxacin (MIC test strips), quinolone-resistant gyrA-S83L strains; type: cell-based
ExoVII = molecular target: T1, ExoVII (Escherichia coli, UniProt P04994); assay: In-vitro ExoVII cleavage assay (IC50 determination); type: biochemical
T1 construct: purchased ThermoFisher or NEB
T1 sequence (P04994 whole entry): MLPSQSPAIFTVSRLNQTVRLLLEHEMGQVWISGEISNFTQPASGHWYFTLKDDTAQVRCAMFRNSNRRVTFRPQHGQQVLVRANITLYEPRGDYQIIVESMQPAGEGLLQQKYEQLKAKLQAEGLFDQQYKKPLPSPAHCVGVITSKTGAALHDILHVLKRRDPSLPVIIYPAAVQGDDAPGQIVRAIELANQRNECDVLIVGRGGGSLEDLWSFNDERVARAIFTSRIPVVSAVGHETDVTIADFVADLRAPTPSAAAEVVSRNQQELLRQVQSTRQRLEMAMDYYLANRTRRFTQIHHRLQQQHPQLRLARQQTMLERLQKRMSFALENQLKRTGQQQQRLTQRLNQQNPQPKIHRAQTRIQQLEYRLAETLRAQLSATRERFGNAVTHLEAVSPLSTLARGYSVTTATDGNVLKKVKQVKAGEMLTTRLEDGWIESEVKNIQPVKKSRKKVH
T1 sequence (P0A8G9 whole entry, further chain): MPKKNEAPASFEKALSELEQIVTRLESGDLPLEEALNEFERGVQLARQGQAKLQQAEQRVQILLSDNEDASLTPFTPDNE
Description: FIG. 13A, FIG. 13B, FIG. 13C, and FIG. 13D. CPID is a specific ExoVII inhibitor. FIG. 13A. […] FIG. 13B. […] FIG. 13C. […] Representative gel image and quantification are shown. IC50 value was averaged from 5 independent experiments. FIG. 13D. CPID is not toxic to HEK293 or MEF cells as determined by relative confluency of seeded cells after 72-hour treatment at the indicated CPID concentration.
ExoVII reactions were incubated at 37° C. for 1 or 2 hrs followed by inactivation at 55° C. for 30 mins before terminated by addition of 20 μL formamide gel loading buffer (96% (v/v) formamide, 10 mM ethylenediaminetetraacetic acid, 1% (w/v) xylene cyanol and 1% (w/v) bromophenol blue). For IC50 determination, ExoVII was preincubated with the inhibitor at 25° C. for 5 mins before addition of equal volume of DNA solution and the reaction continued for another 20-30 mins. The 10 μL reaction contained 0.025 U/μL ExoVII, 20-100 nM internally ratio-labeled DNA substrate, and indicated inhibitor concentration in buffer with 50 mM potassium acetate, 20 mM trisacetate (pH=7.9), 10 mM magnesium acetate, 1 mM DTT and 10% (v/v) DMSO. The percentage of products in the presence of inhibitor was normalized to that of control reaction without any inhibitors, and resulting plot was fitted to a nonlinear regression function in Prism. DNA gyrase was purified as previously described.

[3] = system: Staphylococcus aureus strain HG003; assay: Synergy with ciprofloxacin in Staphylococcus aureus cultures (OD600 growth); type: cell-based; conditions: gram-positive
Description: (§1) OD600 was measured at the end of 4-hr incubation at 37° C. shaking at 225 rpm and cell densities were normalized to samples without any drug treatment. Toxicity of compounds were measured by treating either HEK293 or MEF (1000 cells in 96-well plates seeded 24-hr prior) with indicated concentrations of ExoVII inhibitor for 72 hours. The samples were imaged with a Cytation 5 (BioTek) and the confluency of each well were normalized to untreated samples.

ΔxseB-pgyrA-S83L = assay: Synergy with ciprofloxacin in quinolone-resistant ExoVII-deficient strain (OD600 growth); type: cell-based, E. coli
Description: as §1

ΔxseA-pgyrA-S83L = assay: as above; type: cell-based, E. coli
Description: as §1

WT-pgyrA-S83L = assay: Synergy with ciprofloxacin in quinolone-resistant strain (OD600 growth); type: cell-based, E. coli
Description: as §1

## O=C(O)c1cn(C2CC2)c2cc(N3CCNCC3)c(F)cc2c1=O [ciprofloxacin]
[1]
  Sensitivity of ExoVII-deficient transformants to quinolones: hypersensitivity
[2]; gyrA-S83L background
  Decrease in ciprofloxacin MIC on inactivating either subunit of ExoVII: ~ 2 fold
[2]; gyrA-S83L vs wild-type gyrA
  Increase in ciprofloxacin MIC by gyrA-S83L: 10 fold

## O=C1Cc2ccc(-c3cccc(Cl)c3)cc2C(=O)N1 [CPID, 7-(3-chlorophenyl)-1,3(2H,4H)-Isoquinolinedione]
ExoVII
  IC50: 2.43 µM
[3]
  Synergy with ciprofloxacin: clear synergy
ΔxseB-pgyrA-S83L
  Synergy with ciprofloxacin: not synergistic
ΔxseA-pgyrA-S83L
  Synergy with ciprofloxacin: not synergistic
WT-pgyrA-S83L
  Synergy with ciprofloxacin: synergistic

## CCn1cc(C(=O)O)c(=O)c2ccc(C)nc21 [nalidixic acid]
[1]
  Sensitivity of ExoVII-deficient transformants to quinolones: hypersensitivity
